# From US20130331326A1, “METHOD OF INDUCING HEMATOPOIETIC RECONSTRUCTION” (DUKE UNIVERSITY, priority 2011, published 2013)
# Entries after “also recorded” stand apart in the source; their conditions may differ.
# B1: IL17f: candidate cytokine from BM serum array screened on irradiated BM KSL cells (protein, UniProt Q7TNI7 29-161, looked up)
# Interleukin-17F: RKNPKAGVPALQKAGNCPPLEDNTVRVDIRIFNQNQGISVPREFQNRSSSPWDYNITRDPHRFPSEIAEAQCRHSGCINAQGQEDSTMNSVAIQQEILVLRREPQGCSNSFRLEKMLLKVGCTCVKPIVHQAA
# B2: IL5: candidate cytokine from BM serum array screened on irradiated BM KSL cells (protein, UniProt P04401 21-133, looked up)
# Interleukin-5: MEIPMSTVVKETLTQLSAHRALLTSNETMRLPVPTHKNHQLCIGEIFQGLDILKNQTVRGGTVEMLFQNLSLIKKYIDRQKEKCGEERRRTRQFLDYLQEFLGVMSTEWAMEG
# B3: IL17: candidate cytokine from BM serum array screened on irradiated BM KSL cells (protein, UniProt Q62386 26-158, looked up)
# Interleukin-17A: AAIIPQSSACPNTEAKDFLQNVKVNLKVFNSLGAKVSSRRPSDYLNRSTSPWTLHRNEDPDRYPSVIWEAQCRHQRCVNAEGKLDHHMNSVLIQQEILVLKREPESCPFTFRVEKMLVGVGCTCVASIVRQAA
# B4: KC: keratinocyte-derived chemokine, candidate protein screened on irradiated BM KSL cells (protein, UniProt P12850 25-96, looked up)
# Growth-regulated alpha protein: APIANELRCQCLQTMAGIHLKNIQSLKVLPSGPHCTQTEVIATLKNGREACLDPEAPLVQKIVQKMLKGVPK
# Experiments:
# [1] = test system: BM hematopoietic stem and progenitor cells; test: Hematopoietic regeneration in C57B16 mice after 700 cGy TBI (progenitor assays, competitive repopulation); assay type: in vivo, mouse
# Procedure: (§1) BM cells were collected into PBS (Cellgro, Manassas, Va.) with 10% fetal bovine serum (Hyclone, Logan, Utah) and 1% penicillin/streptomycin (GIBCO, Grand Island, N.Y.). Viable BM cells were quantified using Trypan Blue Stain (Lonza, Basel, Switzerland) to exclude apoptotic and dead cells. Cells were then incubated with anti-c-kit, anti-Sca-1, anti-lineage cocktail, anti-CD41, anti-CD48, and anti-CD150 antibodies (Biolegend and eBiosciences, San Diego, Calif.; BD, San Jose, Calif.) to measure ckit^+sca-1^+lin^− (KSL) progenitor cells or CD150′CD41^−CD48^−KSL (SLAM/KSL) as previously described (Kiel et al, Cell 121:1109-1121 (2005)). Colony forming cells (CFCs) and CFU-S12 assays were also performed to measure functional hematopoietic stem/progenitor cell content. For CFCs, either whole BM or cultured lineage−cells, or KSL cells were plated onto methylcellulose (StemCell Technologies, Vancouver, BC, Canada), and colonies were scored on day 14. 1×10^5 BM or 2×10^5 cells were collected from donor mice and injected via tail vein into recipient C57B16 mice that had been given 950 cGy TBI. At day +12 post-injection, spleens from recipient mice were harvested and stained with Bouin's fixative solution (Ricca Chemical Company, Arlington, Tex.), and colonies were counted as previously described (Till and MeRadiat. Res. 14:213-222 (1961)). Complete blood counts were performed on a HemaVet 950 (Drew Scientific, Dallas, Tex.).
# (§2) Competitive repopulation assays were also performed using donor C57B16 mice (CD45.2^+) that had been irradiated with 700 cGy TBI and gavaged daily with 10 μg/G erlotinib (Genentech, San Francisco, Calif.) or 150 μl water beginning on day 0 and continued through day +14. Donor BM cells were injected via tail vein into recipient B6.SJL mice (CD45.1^+) at a dose of 5×10^5 cells with a competing dose of host 1×10^5 BM MNCs. Tie2Cre;Bak1^−/−;Bax^FL/− mice were gavaged daily with 10 μg/G erlotinib or water starting day −3 and given 300 cGy TBI on day 0. Erlotinib administration continued until the timepoint of donor BM cell collection and analysis. Tie2Cre;Bak1^−/−;Bax^FL/− BM cells were injected via tail vein into recipient CD45.1^+ mice at a cell dose of 3×10^5 cells with a competing dose of host 1×10^5 CD45.1^+ cells. Multilineage hematopoietic reconstitution was measured in the PB of recipient mice by flow cytometry at 4, 8, and 12 weeks post-transplant. For survival studies with erlotinib administration, C57B16 mice were exposed to 700 cGy and then given 10 μg/G erlotinib or water starting day −3 and continuing daily through day +14.
# Ten micrometer sections were cut using they CryoJane tape system (Instrumedics Inc, Hackensack, N.J., USA). Femurs were stained with hematoxylin and eosin or anti-mouse endothelial cell antibody (MECA-32) as previously described (Salter et al, Blood 113:2104-2107 (2009)) to assess BM cellularity and the BM vasculature after irradiation. Images were obtained using an Axiovert 200 microscope (Carl Zeiss Microscopy, Thornwood, N.Y.) or a Leica SP5 confocal microscope (Leica Microsystems Inc, Buffalo Grove, Ill.). Adobe Photoshop software (version 9.0.2, Adobe Systems, San JoSe, Calif.) was used to quantify positive signal as a measure of spatial distribution in the fields (Lehr et al, J. Histochem. Cytochem. 45:1559-1565 (1997), Lehr et al, J. Histochem. Cytochem. 47:119-126 (1999)).
# BM lin- cells = test: Culture of BM lin- cells from VavCre;EGFRfl/fl or VavCre;EGFR+/+ mice with erlotinib; assay type: cell-based, mouse; settings: TSF + 10 uM erlotinib, 72 hours
# Procedure: Cell apoptosis and necrosis were analyzed by flow cytometry according to manufacturer's protocols with Annexin V-FITC and 7-AAD staining (BD, San Jose, Calif.). […] Cells were fixed and permeabilized with Fix Buffer I and Perm Buffer III (BD), and then stained with mouse anti-phospho-AKT-S473 PE (BD) or isotype control. Cell cycle analysis was performed by flow cytometric analysis modified from previous reports (Jordan et al, Exp. Hematol. 24:1347-1355 (1996), Chute et al, Hum. Gene Ther. 11:2515-2528 (2000), Sungartz et al, Blood 119:1308-1309 (2012)). Briefly, cells were fixed and permeabilized with 0.25% Saponin (Calbiochem, La Jolla, Calif.), 2.5% paraformaldehyde, 2% FBS in 1×PBS, and then labeled with Ki67-FITC and 7-AAD (BD). BM lin^− cells from VavCre;EGFR^+/+ or VavCre;EGER^fl/fl were cultured with TSF or TSF+10 μM erlotinib, or TSF following 300 cGy for 72 hours, and then collected for total cell counts and CFCs analysis.
# EGFR = EGFR phosphorylation in BM KSL cells of erlotinib-treated Tie2Cre;Bak1-/-;BaxFl/- mice; assay type: in vivo, mouse; settings: erlotinib-treated Tie2Cre;Bak1-/-;BaxFl/- mice vs water
# Procedure: (§3) FIGS. 5A-5D. (FIG. 5A) Schematic diagram of irradiation and treatment of Tie2Cre;Bak1^−/−;Bax^Fl/− mice with erlotinib or water starting 3 days prior to TBI with evaluation of BM progenitor cell content and HSC repopulating capacity via competitive transplantation at +2 hours after TBI. […] A Student's 2-tailed t-test was used for all statistical analyses.
# [2] = test system: BM HSC and progenitor cells; test: Erlotinib pre-treatment of Tie2Cre;Bak1-/-;BaxFl/- mice, 300 cGy TBI, BM HSC and progenitor cell content; assay type: in vivo, mouse
# Procedure: as §3, §2
# C57B16 mice = test: Survival of C57B16 mice after 700 cGy TBI; assay type: in vivo, mouse
# BM KSL cells = test: Culture of 300 cGy-irradiated BM KSL cells with BM ECs or TSF cytokines; CFC and CFU-S12 recovery; assay type: cell-based, mouse; settings: screen of candidate proteins from cytokine array; data not shown
# Procedure: as §1, with “Tex.). […]” for “Tex.).”
# [3] = 700 cGy TBI, erlotinib 10 ug/G oral gavage daily through day +14, vs water
molecule,measurement,setting,value
C#Cc1cccc(Nc2ncnc3cc(OCCOC)c(OCCOC)cc23)c1 [erlotinib],HSC pool at day +14 post-TBI by competitive repopulation assay,"[1]; 700 cGy TBI, erlotinib 10 ug/G oral gavage daily through day +14",essentially absent
same,BM CFCs and CFU-S12 at day +14,[1]; [3],"significantly reduced; also recorded: persistent, significant depletion"
same,BM cellularity at day +14,[1]; [3],persistent BM hypoplasia
same,BM HSCs and progenitor cells at day +7 post-TBI,"[1]; 700 cGy TBI, erlotinib 10 ug/G oral gavage daily, same in control mice, data not shown",depletion of BM HSCs and progenitor cells
same,short-term and longer-term HSCs (4 week through 12 week donor cell engraftment),"[1]; 700 cGy TBI, erlotinib-treated donors vs control",marked reduction
same,hematopoietic reconstitution following total body irradiation,"[1]; Example 1, administration of erlotinib to mice",marked delay
same,total cells and CFCs,BM lin- cells; EGFR+/+ BM lin- cells,decreased yield in total cells and CFCs; also recorded: significantly less total cells and CFCs
same,total cell expansion or CFC production,"BM lin- cells; EGFRfl/fl BM lin- cells, vs cytokines alone",no significant effect
same,EGFR-phosphorylation in BM KSL cells,EGFR,decrease in EGFR-phosphorylation
same,"engraftment of myeloid cells, B cells and T cells at 12 weeks post-transplant",[2]; BM from erlotinib-treated Tie2Cre;Bak1-/-;BaxFl/- mice vs irradiated control,reduced engraftment
same,BM KSL cells and CFU-S12 following TBI,"[2]; erlotinib from 3 days prior to 300 cGy TBI, +2 hours after irradiation, vs water",decreased BM KSL cells and decreased BM CFU-S12 content; also recorded: significantly decreased
same,decreased HSC content (4- to 12-week engraftment in competitively transplanted recipients),"[2]; erlotinib-treated, 300 cGy irradiated Tie2Cre;Bak1-/-;BaxFl/- donors vs water",more than 20 fold
same,mice that survived beyond day +27,"C57B16 mice; 10 ug/G erlotinib oral gavage from 3 days prior to TBI for 14 days post-irradiation, water controls 53% at day +30",0 of 15
same,mice that died by day +27,C57B16 mice; 10 ug/G erlotinib via gavage from 3 days prior to TBI until day +14,15 of 15
B1,modulation of the activity of FL/- ECs or FL/+ ECs in promoting BM KSL cell recovery after irradiation,BM KSL cells,none modulated the activity
same,recovery of BM KSL cells in vitro following irradiation,BM KSL cells,none of these proteins significantly altered the recovery
B2,modulation of the activity of FL/- ECs or FL/+ ECs in promoting BM KSL cell recovery after irradiation,BM KSL cells,none modulated the activity
same,recovery of BM KSL cells in vitro following irradiation,BM KSL cells,none of these proteins significantly altered the recovery
B3,modulation of the activity of FL/- ECs or FL/+ ECs in promoting BM KSL cell recovery after irradiation,BM KSL cells,none modulated the activity
same,recovery of BM KSL cells in vitro following irradiation,BM KSL cells,none of these proteins significantly altered the recovery
B4,modulation of the activity of FL/- ECs or FL/+ ECs in promoting BM KSL cell recovery after irradiation,BM KSL cells,none modulated the activity
same,recovery of BM KSL cells in vitro following irradiation,BM KSL cells,none of these proteins significantly altered the recovery
